According to PubChem BioAssay (NCI):
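GI50 marks 50% less growth. TGI: total growth inhibition.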

Columns and labels:
Assay in all cases: DTP human tumour cell line panel, 384-well format
[1] = test system: LOX IMVI melanoma
[2] = test system: NCI-H522 lung
[3] = test system: A549 NSCLC
[4] = test system: OVCAR-5 ovarian
[5] = test system: MOLT-4 leukemia
[6] = test system: K-562 leukemia
[7] = test system: NCI-H226 lung
[8] = test system: HS 578T breast
[9] = test system: 786-0 renal
[10] = test system: HOP-62 NSCLC
[11] = test system: MDA-MB-231 breast
[12] = test system: MALME-3M melanoma
[13] = test system: NCI-H23 lung
[14] = test system: SK-MEL-28 melanoma
[15] = test system: SR leukemia
[16] = test system: HT29 colon
[17] = test system: HOP-92 NSCLC
[18] = test system: HCC-2998 colon
[19] = test system: U251 glioblastoma
[20] = test system: PC-3 prostate
[21] = test system: SK-MEL-5 melanoma
[22] = test system: M14 melanoma
[23] = test system: T-47D breast
[24] = test system: CAKI-1 renal
[25] = test system: RXF 393 renal
[26] = test system: EKVX NSCLC
[27] = test system: RPMI-8226 leukemia
[28] = test system: TK-10 renal
[29] = test system: SW-620 colon
[30] = test system: HCT-15 colon
[31] = test system: DU-145 prostate
[32] = test system: A498 renal
[33] = test system: MDA-MB-435 melanoma
[34] = test system: HCT-116 colon
[35] = test system: CCRF-CEM leukemia
[36] = test system: ACHN renal
[37] = test system: MCF7 breast
[38] = test system: SN12C renal
[39] = test system: SK-OV-3 ovarian
[40] = test system: KM12 colon
[41] = test system: SF-268 CNS
[42] = test system: SNB-75 CNS
[43] = test system: SNB-19 CNS
[44] = test system: OVCAR-3 ovarian
[45] = test system: UACC-257 melanoma
[46] = test system: MDA-MB-468 breast
[47] = test system: OVCAR-4 ovarian
[48] = test system: SF-539 CNS
[49] = test system: COLO 205 colon
[50] = test system: NCI/ADR-RES ovarian
[51] = test system: NCI-H460 NSCLC
[52] = test system: OVCAR-8 ovarian
[53] = test system: IGROV1 ovarian
[54] = test system: SF-295 CNS
[55] = test system: UO-31 renal
[56] = test system: BT-549 breast
[57] = test system: NCI-H322M lung
[58] = test system: HL-60(TB) leukemia

COC[C@H]1OC(=O)c2coc3c2[C@@]1(C)C1=C(C3=O)[C@@H]2CCC(=O)[C@@]2(C)C[C@H]1OC(C)=O was tested, and the GI50 [1] was 21.1 µM, the TGI [1] was > 100 µM and the GI50 [2] was 20.3 µM. For the same compound, the TGI [2] was > 100 µM, the GI50 [3] was 7.24 µM and the TGI [3] was > 100 µM. The GI50 [4] was 15.4 µM, the TGI [4] was > 100 µM and the GI50 [5] was 2.3 µM. For the same compound, the TGI [5] was 13.6 µM, the GI50 [6] was 71.9 µM and the TGI [6] was > 100 µM. For the same compound, the GI50 [7] was 12.5 µM, the TGI [7] was > 100 µM and the GI50 [8] was 1.6 µM. The TGI [8] was 12.8 µM, the GI50 [9] was 26.3 µM and the TGI [9] was > 100 µM. For the same compound, the GI50 [10] was 10.9 µM, the TGI [10] was > 100 µM and the GI50 [11] was 17.6 µM. The TGI [11] was > 100 µM, the GI50 [12] was 3.9 µM and the TGI [12] was 42.4 µM. For the same compound, the GI50 [13] was 22.1 µM, the TGI [13] was > 100 µM and the GI50 [14] was 9.73 µM. The TGI [14] was > 100 µM, the GI50 [15] was 1.28 µM and the TGI [15] was 4.28 µM. For the same compound, the GI50 [16] was 7.88 µM, the TGI [16] was > 100 µM and the GI50 [17] was 6.12 µM. The TGI [17] was > 100 µM, the GI50 [18] was 3.91 µM and the TGI [18] was 44.6 µM. The GI50 [19] was 67.4 µM, the TGI [19] was > 100 µM and the GI50 [20] was 1.44 µM. The TGI [20] was > 100 µM, the GI50 [21] was 4.21 µM and the TGI [21] was 27.9 µM. For the same compound, the GI50 [22] was 18.2 µM, the TGI [22] was > 100 µM and the GI50 [23] was 4.32 µM. The TGI [23] was 60.3 µM, the GI50 [24] was 7.96 µM and the TGI [24] was > 100 µM. For the same compound, the GI50 [25] was 0.281 µM, the TGI [25] was 1.82 µM and the GI50 [26] was 5.6 µM. The TGI [26] was > 100 µM, the GI50 [27] was 2.39 µM and the TGI [27] was 9.89 µM. For the same compound, the GI50 [28] was 12 µM, the TGI [28] was > 100 µM and the GI50 [29] was 28.8 µM. For the same compound, the TGI [29] was > 100 µM, the GI50 [30] was 11.4 µM and the TGI [30] was > 100 µM. The GI50 [31] was 25.2 µM, the TGI [31] was > 100 µM and the GI50 [32] was 4.52 µM. The TGI [32] was 54.3 µM, the GI50 [33] was 24.7 µM and the TGI [33] was > 100 µM. For the same compound, the GI50 [34] was 16.8 µM, the TGI [34] was > 100 µM and the GI50 [35] was 7.05 µM. For the same compound, the TGI [35] was 30.6 µM, the GI50 [36] was 7.99 µM and the TGI [36] was > 100 µM. The GI50 [37] was 1.34 µM, the TGI [37] was > 100 µM and the GI50 [38] was 11 µM. For the same compound, the TGI [38] was > 100 µM, the GI50 [39] was 8.24 µM and the TGI [39] was > 100 µM. The GI50 [40] was 15.4 µM, the TGI [40] was > 100 µM and the GI50 [41] was 4.4 µM. For the same compound, the TGI [41] was 67.9 µM, the GI50 [42] was 1.34 µM and the TGI [42] was 11.7 µM. For the same compound, the GI50 [43] was 50.2 µM, the TGI [43] was > 100 µM and the GI50 [44] was 2.74 µM. For the same compound, the TGI [44] was 32.1 µM, the GI50 [45] was 13.6 µM and the TGI [45] was > 100 µM. It also gave a GI50 [46] of 1.46 µM, a TGI [46] of 7.84 µM and a GI50 [47] of 2.36 µM. For the same compound, the TGI [47] was > 100 µM, the GI50 [48] was 22.5 µM and the TGI [48] was > 100 µM. The GI50 [49] was 26.7 µM, the TGI [49] was > 100 µM and the GI50 [50] was 25 µM. For the same compound, the TGI [50] was > 100 µM, the GI50 [51] was 7.17 µM and the TGI [51] was > 100 µM. For the same compound, the GI50 [52] was 14.7 µM, the TGI [52] was > 100 µM and the GI50 [53] was 1.18 µM. The TGI [53] was 11.3 µM, the GI50 [54] was 7.25 µM and the TGI [54] was > 100 µM. The GI50 [55] was 3.33 µM, the TGI [55] was > 100 µM and the GI50 [56] was 3.31 µM. The TGI [56] was 42.8 µM, the GI50 [57] was 6.91 µM and the TGI [57] was > 100 µM. It also gave a GI50 [58] of 0.975 µM and a TGI [58] of 2.74 µM.
